From patent US8420606B2, “Method of utilizing physiological activity of rare saccharide and composition containing rare saccharide” (priority 2002, dated 2013)
Entries after “also recorded” stand apart in the source; their conditions may differ.

Experiments:
[1] = tested on: uterine cancer cells (He1a); assay: proliferation of cultured cells, MTT method, He1a; type: cell-based, human; conditions: saccharide 50 mM, 4 to 5 days
Protocol: Various kinds of rare saccharides were added at a concentration of 50 mM to culture media under the following conditions, and an influence of each rare saccharide upon the progress of proliferation of cancer cell strains was examined.
(1) Target cells to which the rare saccharides were added: Hepatic cancer cells (HepG2), uterine cancer cells (He1a), ovary cancer cells (OVCAR3), and skin keratinocyte (HaCaT) were selected as target cells to which the rare saccharides were added.
(2) Rare saccharides added: In addition to D-allose, glucose and D-altros as rare saccharides belonging to ketose were added, as other comparative saccharides, to the addition target cells. Also, D-fructose was employed as a control.
(3) Experiment method: A number 3,000-5,000 of addition target cells per type were inoculated into a multi-well plastic dish (hereinafter referred to as a “well”) having 96 wells, and were cultured for 4 to 5 days in a culture medium supplemented with 5 to 10% of Fetal Bovine Serum (FBS) depending on the cell types. […] To examine the influence upon the cell proliferation, the cell number was measured in units of 24 hours by using the MTT method described below. […]
(2) Test method: The cells were treated with TEP to prepare a cell suspension liquid. […] The absorbance of the liquid was measured at a wavelength of 570 to 600 nm by using a spectrophotometer. […]

livers of rats = assay: rat liver ischemia-reperfusion, survival; type: in vivo; conditions: liver ischemia 90 minutes then reperfusion; D-allose 0.2 g/kg perfused before the ischemia; usually only 30%
Protocol: When a surgical operation for intestinal organs, such as the liver, is performed, a blood flow is always temporarily stopped. This brings the intestinal organs into the ischemia state. When blood is started to flow again after the surgery, active oxygen is produced in large amount from leukocyte at that time, which is considered as one of major causes bringing about the organic injury. The inventors conducted an experiment through the steps of bringing the livers of rats into the ischemia state for a relatively long time, i.e., 90 minutes, and then reperfusing blood to examine the survival rate of the rats after 3 months depending on application or non-application of the rare saccharide. While the survival rate is usually only 30%, it increased to about 70% by perfusing D-allose at 0.2 g/kg before the ischemia. […] This effect is considered to be one factor making D-allose effective in organ protection.

[2] = tested on: temporary eye ischemia model (rat); assay: retina ischemia-reperfusion, glutamate by microdialysis; type: in vivo; conditions: D-allose 200 mg/kg intravenous before the ischemia
Protocol: (1) Purpose: This Example 6 is intended to study an influence of D-allose upon the retina in a temporary eye ischemia model (rat). (2) Method: The temporary eye ischemia model was prepared by raising the intraocular pressure up to a level of about 120 mmHg. The model was subjected to ischemia for 45 minutes and then to reperfusion. The concentration of glutamate released in the ischemia-reperfusion process was measured by the microdialysis method.

[3] = tested on: Human vascular endothelial cells (HUVECs); assay: MCP-1 secretion from vascular endothelial cells, ELISA; type: cell-based; conditions: D-psicose 0, 5.6, 11.2 mM, 24 hours
Protocol: Human vascular endothelial cells (HUVECs) were cultured under the culture medium condition of (DMEM +10% FBS) in accordance with the ordinary method. HUVECs at concentration of about 70% were pipitted into a 96-well culture dish, and the following experiments were performed.
D-psicose was added to the HUVECs culture medium at concentrations of 0 mM, 5.6 mM and 11.2 mM. After cultivation for 24 hours, MCP-1 in the culture medium was measured by using an ELISA (Quantikine, R&D) kit.
HUVECs were pretreated for 1 hour with cytokines acting upon HUVECs and stimulating secretion of MCP-1, i.e., IL-1β (maximum secretion stimulus concentration of 1 ng/mL), and TNF-α (maximum secretion stimulus concentration of 10 ng/mL). Then, D-psicose was added at concentrations of 0 mM, 5.6 mM and 11.2 mM, and after 24-hour cultivation, the MCP-1 concentration in the culture medium was measured by using the ELISA kit. […] The secretion of MCP-1 in the vascular endothelial cells is stimulated by cytokines (IL-1β, TNF-α) at maximum secretion stimulus concentration of 1 ng/mL for IL-1β and 10 ng/mL for TNF-α.

microglia migration = assay: brain ischemia model, number of appearing microglias; type: in vivo, gerbil; conditions: 200 mg/kg femoral vein 5 minutes before and immediately after 5 minutes ischemia; after 1 week
Protocol: In this Example 11 described below, an influence of ketohexose belonging to the rare saccharides upon the number of microglias appearing with ischemia is examined. […] D-psicose was used as the ketohexose belonging to the rare saccharides. As a brain ischemia model, the bilateral common carotid artery of a male gerbil with weight of about 70 g was shut off for 5 minutes. In this model, neurons in the hippocampus CA1 area of a brain are peculiarly brought to ischemic cell necrosis.
Comparative studies were made on three exemplified groups, i.e., one group not subjected to ischemia (control: Sham), another group subject to ischemia+treatment with physiological saline, and still another group subject to ischemia+treatment with D-psicose.
The D-psicose treatment was performed through the steps of dissolving D-psicose in physiological saline to prepare a D-psicose solution with concentration of 200 mg/mL, and administrating the D-psicose solution to the ischemia model through the femoral vein in units of 200 mg/kg at 5 minuets before ischemia and immediately after the ischemia. The physiological saline treatment was performed by administering only physiological saline instead of the D-psicose solution. After 1 week from the ischemia, perfusion fixation was made and a frozen brain sample of 20 μm was prepared, followed by hematoxyline eosin dyeing.

O=C[C@H](O)[C@H](O)[C@H](O)[C@H](O)CO [D-allose]
proliferation of He1a cells (cell number over time) [1]: strongly inhibited proliferation; also recorded: has a proliferation inhibitory effect | survival rate of the rats after 3 months (livers of rats): about 70% | glutamate concentration during the reperfusion [2]: completely inhibited | glutamate concentration during the ischemia ([2]; 45 minutes ischemia, versus control): inhibited in comparison with that in the control

O=C(CO)[C@H](O)[C@H](O)[C@H](O)CO [D-psicose]
basic secretion of MCP-1 [3]: able to inhibit the secretion of MCP-1 depending on the concentration; also recorded: has a MCP-1 secretion inhibitory effect | cytokine-stimulated secretion of MCP-1 ([3]; IL-1β 1 ng/mL pretreatment 1 hour): inhibited by added D-psicose depending on the concentration; also recorded: inhibits secretion of MCP-1 | number of appearing microglias (microglia migration): reduced
